In PMC7764601 (Molecules, 2020):
Where “and” joins values, the source holds several entries; their conditions need not be identical. Identical values can stand only once. Marks after values point to notes of the source that are not given here.

What was measured:
Format in all cases: in vivo
in vivo = details: male, albino Swiss, mouse, in vivo, ip; mice, intraperitoneal, mortality after 24 h; confidence limits in parentheses
Method: (§1) The experiments were carried out on male albino Swiss mice (body weight 18–26 g). All of the animals were housed at constant humidity (60%) and temperature (25 °C) and kept on a 12 h light/dark cycle. Animals were fed a standard pellet diet with free access to tap water. All procedures were conducted according to Animal Care and Use Committee guidelines, and approved by the Ethical Committee of Jagiellonian University, Kraków.
(§2) Control and experimental groups consisted of 6–8 animals each. The investigated compounds were administered intraperitoneally as a suspension in 0.5% methylcellulose in a constant volume of 10 mL/kg.

mice [1] = assay: in vivo; details: ED50 of the writhing test (Table 3) relative to LD50 i.p.
Method: as §1, §2

mice [2] = assay: “Writhing” test in mice (phenylbenzoquinone); details: for ED50: Mus musculus, ip, read-out: ED50 (mg/kg) ± SEM, writhing test; for ED50 / ED50 (mg/kg) ± SEM, writhing test: confidence limits in parentheses; for ED50 (mg/kg) ± SEM, writhing test / Mean no. of writhing ± SEM: i.p.
Method: as §1, §2
(§3) The statistical significance was calculated using a Student’s t-test. The ED50 values and their confidence limits were calculated according to the method of Litchfield and Wilcoxon.
(§4) Pain reactivity was measured in two tests: “hot plate” test (according to the method of Eddy and Leimbach) and “writhing” test in mice (according to Hendershot and Forsaith).
Then, after 25 min, the irritant (phenylbenzoquinone, 0.02% solution, ethanol-water, 5:95) was also administered intraperitoneally in a constant volume of 0.25 mL. Five min after the application of the irritant,a 10 min long period of observation started, in which the number of writhing episodes was counted.
The analgesic effect of individual doses was expressed in percent:(1) % Analgesic effect=100−∑ of writing incidents in experimental group/∑ of writhing incidents in control group×100

mice [3] = assay: Thiopental anesthesia (thiopental-induced sleep); details: for Prolongation (%) of thiopental anesthesia / Duration of Anesthesia ± SEM: i.p.; for effect on duration of thiopental anesthesia (in words): mouse, in vivo; for Duration of Anesthesia ± SEM: thiopental
Text: The pilot biological studies for imides 9 and 11 were supplemented with the determination of the effect of the intraperitoneal administration of the test compounds on the duration of thiopental-induced sleep. The mechanism and the degree of crossing the blood–brain barrier has not been precisely defined. The observed sedative effects may indicate good penetration of compounds into the central nervous system, which, however, has not been confirmed.
as §2

mice [4] = assay: Spontaneous locomotor activity in mice (photoresistor actometers); details: for ED50: confidence limits in parentheses, read-out: ED50 (mg/kg) ± SEM, spontaneous locomotor activity; for Number of impulses ± SEM (30min): i.p.
Method: as §1, §2
Spontaneous locomotor activity in mice was measured in circular photoresistoractometers (32 cm in diameter). […] Thirty minutes after the injection of the investigated compounds, mice were placed in the actometers for 30 min. Each crossing of the light beam was recorded automatically. The amount of impulses was noted after 30 min.

mice [5] = assay: “Hot plate” test in mice; details: hot plate, mice
Method: as §1, §2, §3, §4
Animals were placed individually on the metal plate, heated to 55 ± 1 °C. The latency time (s) to the pain reaction (licking of the hind paws or jumping) was recorded by a stop-watch. A cutoff time of 45 s was used to prevent tissue damage.

[6] = Mus musculus, ip, dose 25 mg/kg, read-out: Degree of motor inhibition (%)
[7] = Mus musculus, ip, dose 50 mg/kg, read-out: Degree of motor inhibition (%)
[8] = Mus musculus, ip, 0.5 h, dose 100 mg/kg, read-out: Prolonged Time (%)
[9] = Mus musculus, ip, 0.5 h, dose 200 mg/kg, read-out: Prolonged Time (%)
[10] = Mus musculus, ip, dose 100 mg/kg, read-out: Degree of motor inhibition (%)
[11] = Mus musculus, ip, dose 200 mg/kg, read-out: Degree of motor inhibition (%)

COc1nc(C)cc2c1C(=O)N(CCN1CCN(c3ccccc3)CC1)C2=O [Compound 9]
LD50 at 24 h (in vivo): 1500 mg/kg | analgesic ED50 as fraction of LD50 (mice [1]): ≈ 1/408 | ED50 (mice [2]): 3.25 mg/kg | ED50 (mg/kg) ± SEM, writhing test (mice [2]): 3.67 mg/kg | Mean no. of writhing ± SEM (mice [2]; dose 4.68 mg/kg): 22.0 ± 4.6 | Mean no. of writhing ± SEM (mice [2]; dose 9.375 mg/kg): 9.8 ± 1.8 | Mean no. of writhing ± SEM (mice [2]; dose 18.75 mg/kg): 5.0 ± 2.0 | Mean no. of writhing ± SEM (mice [2]; dose 37.5 mg/kg): 1.2 ± 0.7 | Prolongation (%) of thiopental anesthesia (mice [3]; dose 9.375 mg/kg): 34.8% | Prolongation (%) of thiopental anesthesia (mice [3]; dose 18.75 mg/kg): 96.5 * % and 96.5% | Prolongation (%) of thiopental anesthesia (mice [3]; dose 37.5 mg/kg): 157.1 ** % and 157.1% | effect on duration of thiopental anesthesia (in words) (mice [3]): extended the duration of thiopental anesthesia | Duration of Anesthesia ± SEM (mice [3]; dose 9.375 mg/kg): 69.4 ± 12 min | Duration of Anesthesia ± SEM (mice [3]; dose 18.75 mg/kg): 101.2 ± 28.4 min | Duration of Anesthesia ± SEM (mice [3]; dose 37.5 mg/kg): 132.4 ± 27.8 min | ED50 (mice [4]; Mus musculus, ip): 18.8 mg/kg | inhibition at 4.68 mg/kg (mice [4]; Mus musculus, ip, dose 4.68 mg/kg, read-out: Degree of motor inhibition (%)): 22.6% | inhibition at 9.37 mg/kg (mice [4]; Mus musculus, ip, dose 9.37 mg/kg (Table 9), read-out: % Inh. of locomotor activity): 42.8% | inhibition at 18.75 mg/kg (mice [4]; Mus musculus, ip, dose 18.75 mg/kg, read-out: Degree of motor inhibition (%)): 45.9% | inhibition at 37.5 mg/kg (mice [4]; Mus musculus, ip, dose 37.5 mg/kg, read-out: Degree of motor inhibition (%)): 67.2% | Number of impulses ± SEM (30min) (mice [4]; dose 18.75 mg/kg): 244 ± 45 | Number of impulses ± SEM (30min) (mice [4]; dose 37.5 mg/kg): 148 ± 32 | Number of impulses ± SEM (30min) (mice [4]; dose 93.75 mg/kg (as printed in Table S2)): 258 ± 47.4 | change in vivo at 75 mg/kg (mice [5]; Mus musculus, ip, 0.5 h, dose 75 mg/kg, read-out: Prolonged Time (%)): 55% | change in vivo at 150 mg/kg (mice [5]; Mus musculus, ip, 0.5 h, dose 150 mg/kg, read-out: Prolonged Time (%)): 102% | change in vivo at 300 mg/kg (mice [5]; Mus musculus, ip, 0.5 h, dose 300 mg/kg, read-out: Prolonged Time (%)): 105% | Time of Reaction to Pain Stimulus (s) ± SEM (mice [5]; dose 75 mg/kg): 30.3 ± 2.7 s | Time of Reaction to Pain Stimulus (s) ± SEM (mice [5]; dose 150 mg/kg): 39.2 ± 5 s | Time of Reaction to Pain Stimulus (s) ± SEM (mice [5]; dose 300 mg/kg): 40.0 ± 4.4 s

COc1ccccc1N1CCN(CCN2C(=O)c3cc(C)nc(OC)c3C2=O)CC1 [Compound 11]
LD50 at 24 h (in vivo): > 2000 mg/kg | ED50 (mice [2]): 3.67 mg/kg | ED50 (mg/kg) ± SEM, writhing test (mice [2]): 3.25 mg/kg | Mean no. of writhing ± SEM (mice [2]; dose 3.125 mg/kg): 17.7 ± 2.4 | Mean no. of writhing ± SEM (mice [2]; dose 6.25 mg/kg): 6.0 ± 2.8 | Mean no. of writhing ± SEM (mice [2]; dose 12.5 mg/kg): 4.3 ± 1.1 | Mean no. of writhing ± SEM (mice [2]; dose 50 mg/kg): 1.4 ± 0.6 | Prolongation (%) of thiopental anesthesia (mice [3]; dose 12.5 mg/kg): 36.3% | Prolongation (%) of thiopental anesthesia (mice [3]; dose 25 mg/kg): 16.11% | Prolongation (%) of thiopental anesthesia (mice [3]; dose 50 mg/kg): 140.8 *** % and 140.8% | effect on duration of thiopental anesthesia (in words) (mice [3]): extended the duration of thiopental anesthesia | Duration of Anesthesia ± SEM (mice [3]; dose 12.5 mg/kg): 70.2 ± 24 min | Duration of Anesthesia ± SEM (mice [3]; dose 25 mg/kg): 50.8 ± 14.2 min | Duration of Anesthesia ± SEM (mice [3]; dose 50 mg/kg): 124 ± 16.2 min | ED50 (mice [4]; Mus musculus, ip): 19.7 mg/kg | inhibition at 6.25 mg/kg (mice [4]; Mus musculus, ip, dose 6.25 mg/kg, read-out: Degree of motor inhibition (%)): 28.2% | inhibition at 12.5 mg/kg (mice [4]; Mus musculus, ip, dose 12.5 mg/kg, read-out: Degree of motor inhibition (%)): 55.4% | inhibition at 25 mg/kg (mice [4]; [6]): 55.9% | inhibition at 50 mg/kg (mice [4]; [7]): 68.7% | Number of impulses ± SEM (30min) (mice [4]; dose 6.25 mg/kg): 324 ± 49 | Number of impulses ± SEM (30min) (mice [4]; dose 12.5 mg/kg): 201 ± 74 | Number of impulses ± SEM (30min) (mice [4]; dose 25 mg/kg): 199.1 ± 48 | Number of impulses ± SEM (30min) (mice [4]; dose 50 mg/kg): 141 ± 63 | change in vivo at 100 mg/kg (mice [5]; [8]): 23% | change in vivo at 200 mg/kg (mice [5]; [9]): 50.7% | change in vivo at 400 mg/kg (mice [5]; Mus musculus, ip, 0.5 h, dose 400 mg/kg, read-out: Prolonged Time (%)): 105% | Time of Reaction to Pain Stimulus (s) ± SEM (mice [5]; dose 100 mg/kg): 24.0 ± 5.0 s | Time of Reaction to Pain Stimulus (s) ± SEM (mice [5]; dose 200 mg/kg): 29.4 ± 5.0 s | Time of Reaction to Pain Stimulus (s) ± SEM (mice [5]; dose 400 mg/kg): 40.0 ± 8.5 s

CCOc1nc(C)cc2c1C(=O)N(CN1CCN(c3cccc(Cl)c3)CC1)C2=O [Compound 14]
LD50 at 24 h (in vivo): > 2000 mg/kg | ED50 (mice [2]): 18.4 mg/kg | Mean no. of writhing ± SEM (mice [2]; dose 12.5 mg/kg): 15.1 ± 4.2 | Mean no. of writhing ± SEM (mice [2]; dose 25 mg/kg): 9.1 ± 0.8 | Mean no. of writhing ± SEM (mice [2]; dose 50 mg/kg): 5.9 ± 1.9 | Mean no. of writhing ± SEM (mice [2]; dose 100 mg/kg): 1.8 ± 0.3 | ED50 (mice [4]; Mus musculus, ip): 98 ± 13.3 mg/kg | inhibition at 25 mg/kg (mice [4]; [6]): 10.7% | inhibition at 50 mg/kg (mice [4]; [7]): 3.5% | inhibition at 100 mg/kg (mice [4]; [10]): 52.4% | inhibition at 200 mg/kg (mice [4]; [11]): 66% | Number of impulses ± SEM (30min) (mice [4]; dose 25 mg/kg): 394 ± 70 | Number of impulses ± SEM (30min) (mice [4]; dose 50 mg/kg): 280 ± 46 | Number of impulses ± SEM (30min) (mice [4]; dose 100 mg/kg): 210 ± 40 | Number of impulses ± SEM (30min) (mice [4]; dose 200 mg/kg): 150 ± 48 | change in vivo at 100 mg/kg (mice [5]; [8]): 2.32% | change in vivo at 200 mg/kg (mice [5]; [9]): 16.8% | Time of Reaction to Pain Stimulus (s) ± SEM (mice [5]; dose 100 mg/kg): 17.6 ± 2.4 s | Time of Reaction to Pain Stimulus (s) ± SEM (mice [5]; dose 200 mg/kg): 20.1 ± 2.3 s

COc1nc(C)cc2c1C(=O)N(CN1CCN(c3ccccc3Cl)CC1)C2=O [Compound 15]
LD50 at 24 h (in vivo): > 2000 mg/kg | ED50 (mice [2]): 19.2 ± 2.14 mg/kg | Mean no. of writhing ± SEM (mice [2]; dose 12.5 mg/kg): 17.2 ± 3.2 | Mean no. of writhing ± SEM (mice [2]; dose 25 mg/kg): 9.4 ± 2.2 | Mean no. of writhing ± SEM (mice [2]; dose 50 mg/kg): 2.9 ± 1.9 | Mean no. of writhing ± SEM (mice [2]; dose 100 mg/kg): 1.4 ± 0.4 | ED50 (mice [4]; Mus musculus, ip): 89.1 ± 4.46 mg/kg | inhibition at 25 mg/kg (mice [4]; [6]): 9.52% | inhibition at 50 mg/kg (mice [4]; [7]): 42.6% | inhibition at 100 mg/kg (mice [4]; [10]): 54% | inhibition at 200 mg/kg (mice [4]; [11]): 65.5% | Number of impulses ± SEM (30min) (mice [4]; dose 25 mg/kg): 399 ± 71 | Number of impulses ± SEM (30min) (mice [4]; dose 50 mg/kg): 253 ± 48 | Number of impulses ± SEM (30min) (mice [4]; dose 100 mg/kg): 203 ± 39 | Number of impulses ± SEM (30min) (mice [4]; dose 200 mg/kg): 152 ± 34 | change in vivo at 200 mg/kg (mice [5]; [9]): 15.7% | Time of Reaction to Pain Stimulus (s) ± SEM (mice [5]; dose 100 mg/kg): 17.0 ± 2.8 s | Time of Reaction to Pain Stimulus (s) ± SEM (mice [5]; dose 200 mg/kg): 19.9 ± 3.9 s
